Reference: patent publication US6737383B1, “Herbicidal oxadiazolidines” (priority 1999, dated 2004)

What was measured:
[1] = test system: bermuda-grass; assay: Test D bermudagrass; assay type: in vivo, Cynodon dactylon; settings: Preemergence, 0 to 100 scale
Summary of the method: (§1)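 Greenhouse pots, sandy loam, single species per pot. Preemergence tests: soil-surface application ≤1 day after planting. Compound formulated in non-phytotoxic solvent with surfactant. Visual rating 14–21 DAT, scale 0–100.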

[2] = test system: winter barley; assay: Test E winter barley; assay type: in vivo, Hordeum vulgare; settings: Preemergence
[3] = test system: green foxtail; assay: Test E green foxtail; assay type: in vivo, Setaria viridis; settings: Preemergence
[4] = test system: tall mallow; assay: Test D tall mallow; assay type: in vivo, Malva sylvestris; settings: Preemergence, 0 to 100 scale
Summary of the method: as §1

[5] = test system: common pursiane; assay: Test D common purslane; assay type: in vivo, Portulaca oleracea
Summary of the method: as §1

[6] = test system: wild oat; assay: Test E wild oat; assay type: in vivo, Avena fatua; settings: Preemergence, 0 to 100 scale where 0 is no effect and 100 is complete control
[7] = test system: Italian ryegrass; assay: Test E Italian ryegrass; assay type: in vivo, Lolium multiflorum; settings: Preemergence
[8] = test system: pitted morningglory; assay: Test D pitted morningglory; assay type: in vivo, Ipomoea lacunosa; settings: Preemergence, 0 to 100 scale
Summary of the method: as §1

[9] = test system: soybean; assay: Test B pre/postemergence soybean; assay type: in vivo, Glycine max
Summary of the method: (§2)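 Response is a visual 0-to-10 score relative to untreated plants, where 0 means no effect and 10 means complete control, taken twelve to sixteen days after application. Treatments went onto soil at planting and onto foliage of 1- to 4-leaf plants, using a surfactant-containing non-phytotoxic solvent.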

[10] = test system: winter wheat; assay: Test E winter wheat; assay type: in vivo, Triticum aestivum; settings: Postemergence
Summary of the method: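 For postemergence, sowings are timed so plants reach the 1- to 4-leaf stage at spraying. Test compound is applied in a surfactant-containing solvent mixture that is non-phytotoxic. Response is judged by eye against untreated controls after approximately 21 to 28 days.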

[11] = test system: cocklebur; assay: Test B pre/postemergence cocklebur; assay type: in vivo, Xanthium strumarium
Summary of the method: as §2

[12] = test system: velvetleaf; assay: Test B pre/postemergence velvetleaf; assay type: in vivo, Abutilon theophrasti; settings: for Plant response rating, Velvetleaf: Rate 250 g/ha
Summary of the method: as §2

[13] = test system: winter wheat; assay: Test E winter wheat; assay type: in vivo, Triticum aestivum; settings: Preemergence
[14] = test system: guineagrass; assay: Test D guineagrass; assay type: in vivo, Panicum maximum; settings: Preemergence, 0 to 100 scale
Summary of the method: as §1

[15] = test system: duck salad; assay: Test B flood test duck salad; assay type: in vivo, Heteranthera limosa
Summary of the method: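 Plants were grown to the 2-leaf stage before treatment with test chemical, then held in a greenhouse for twelve to sixteen days. Injury was visually rated against untreated controls on a 0–10 scale, where 0 is no effect and 10 is complete control.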

[16] = test system: blackgrass; assay: Test E blackgrass; assay type: in vivo, Alopecurus myosuroides; settings: Preemergence
[17] = Rate 16 g/ha, 0 no injury, 100 complete control
[18] = Rate 32 g/ha, 0 no injury, 100 complete control
[19] = Rate 64 g/ha, 0 no injury, 100 complete control
[20] = Rate 125 g/ha, 0 no injury, 100 complete control
[21] = Rate 500 g/ha, 0 to 100 scale where 0 is no effect and 100 is complete control
[22] = Rate 1000 g/ha, 0 to 100 scale where 0 is no effect and 100 is complete control
[23] = Postemergence, Rate 125 g/ha, scale of 0 to 10 where 0 is no effect and 10 is complete control
[24] = Preemergence, Rate 62 g/ha, scale 0 to 10 (0 no effect, 10 complete control)
[25] = Preemergence, Rate 125 g/ha, scale 0 to 10 (0 no effect, 10 complete control)
[26] = Preemergence, Rate 250 g/ha, scale of 0 to 10 where 0 is no effect and 10 is complete control
[27] = Preemergence, Rate 500 g/ha, scale 0 to 10 (0 no effect, 10 complete control)
[28] = Rate 62 g/ha, Postemergence, scale of 0 to 10 where 0 is no effect and 10 is complete control
[29] = Rate 500 g/ha, Postemergence, scale 0 to 10, 0 no effect, 10 complete control

CC(C)N(C(=O)n1oc(=O)n(C2CCCCC2)c1=O)c1ccc(F)cc1F [Compound 115]
50: Plant response rating, Wild oat ([6]; Rate 500 g/ha) | Plant response rating, I. Ryegrass [7, 21] | Plant response rating, Blackgrass [16, 21]
4: Plant response rating, Soybean ([9]; Rate 250 g/ha, Postemergence, scale 0 to 10, 0 is no effect, 10 is complete control) | Soybean plant response rating [9, 29]
2: Cocklebur plant response rating [11, 29] | Plant response rating, Velvetleaf ([12]; Preemergence, scale of 0 to 10 where 0 is no effect and 10 is complete control) | Velvetleaf plant response rating [12, 27]
85: Plant response rating, Guineagrass [14, 20]
90: Plant response rating, Green foxtail [3, 22]
65: Plant response rating, Green foxtail ([3]; Rate 250 g/ha, 0 to 100 scale)
98: Plant response rating, Bermudagrass [1, 18] | Plant response rating, Bermudagrass [1, 19] | Plant response rating, Guineagrass ([14]; Rate 250 g/ha)
40: Plant response rating, Wheat (winter) ([10]; Rate 1000 g/ha, 0 to 100 scale, 0 is no effect and 100 is complete control)
70: Plant response rating, Green foxtail [3, 21]
80: Plant response rating, I. Ryegrass [7, 22]
5: Plant response rating, Wheat (winter) ([13]; Rate 250 g/ha, 0 to 100 scale)
10: Plant response rating, Barley (winter) ([2]; Rate 250 g/ha, 0 to 100 scale) | Plant response rating, P. morninglory ([8]; Rate 500 g/ha) | Plant response rating, Wheat (winter) ([10]; Rate 250 g/ha, 0 to 100 scale (0 no effect, 100 complete control)) | Plant response rating, Wheat (winter) [13, 21]
0: Plant response rating, Tall Mallow [4, 17] | Plant response rating, Tall Mallow [4, 18] | Tall Mallow plant response rating [4, 19] | Tall Mallow plant response rating [4, 20] | Plant response rating, Tall Mallow ([4]; Rate 250 g/ha) | Plant response rating, Tall Mallow ([4]; Rate 500 g/ha) | Plant response rating, C. purslane ([5]; Rate 16 g/ha; Preemergence; 0 to 100 scale, 0 no injury, 100 complete control) | Plant response rating, C. purslane ([5]; Rate 32 g/ha; Preemergence; 0 to 100 scale, 0 no injury, 100 complete control) | Plant response rating, C. purslane ([5]; Rate 64 g/ha, Preemergence; 0 to 100 scale, 0 no injury, 100 complete control) | Plant response rating, C. purslane ([5]; Rate 125 g/ha, Preemergence; 0 to 100 scale, 0 no injury, 100 complete control) | Plant response rating, C. purslane ([5]; Rate 250 g/ha; Preemergence; 0 to 100 scale) | Plant response rating, C. purslane ([5]; Rate 500 g/ha; Preemergence; 0 to 100 scale) | Plant response rating, P. morninglory [8, 17] | Plant response rating, P. morninglory [8, 18] | Plant response rating, P. morninglory [8, 19] | Plant response rating, P. morninglory [8, 20] | Plant response rating, P. morninglory ([8]; Rate 250 g/ha) | Soybean plant response rating [9, 24] | Plant response rating, Soybean [9, 25] | Plant response rating, Soybean [9, 26] | Soybean plant response rating [9, 27] | Cocklebur plant response rating [11, 23] | Cocklebur plant response rating [11, 24] | Plant response rating, Cocklebur [11, 25] | Plant response rating, Cocklebur [11, 26] | Cocklebur plant response rating [11, 27] | Cocklebur plant response rating [11, 28] | Velvetleaf plant response rating [12, 23] | Velvetleaf plant response rating [12, 24] | Velvetleaf plant response rating (0 to 10 scale) ([12]; Preemergence, Rate 125 g/ha, 0 is no effect, 10 is complete control) | Velvetleaf plant response rating [12, 28] | Plant response rating, Velvetleaf ([12]; Postemergence, scale 0 to 10, 0 is no effect, 10 is complete control) | Velvetleaf plant response rating [12, 29] | Plant response rating, Guineagrass [14, 17] | Ducksalad plant response rating ([15]; Postemergence (flood test species), Rate 125 g/ha, scale of 0 to 10 where 0 is no effect and 10 is complete control) | Ducksalad plant response rating ([15]; Rate 62 g/ha, Postemergence section, flood test species, scale of 0 to 10 where 0 is no effect and 10 is complete control) | Ducksalad plant response rating ([15]; Rate 500 g/ha, listed under Postemergence (flood test species), scale 0 to 10, 0 no effect, 10 complete control) | Ducksalad plant response rating ([15]; flood test, listed under Postemergence, Rate 250 g/ha, scale 0 to 10, 0 no effect, 10 complete control)
30: Plant response rating, Barley (winter) [2, 22] | Plant response rating, Guineagrass [14, 18] | Plant response rating, Guineagrass [14, 19] | Plant response rating, Blackgrass ([16]; Rate 250 g/ha, 0 to 100 scale)
100: Plant response rating, Bermudagrass [1, 20] | Plant response rating, Bermudagrass ([1]; Rate 250 g/ha) | Plant response rating, Bermudagrass ([1]; Rate 500 g/ha) | Plant response rating, Guineagrass ([14]; Rate 500 g/ha)
60: Plant response rating, Wild oat ([6]; Rate 1000 g/ha) | Plant response rating, Blackgrass [16, 22]
1: Soybean plant response rating [9, 23] | Soybean plant response rating [9, 28] | Cocklebur plant response rating ([11]; Postemergence, Rate 250 g/ha, scale 0 to 10, 0 no effect, 10 complete control)
20: Plant response rating, Barley (winter) [2, 21] | Plant response rating, C. purslane ([5]; Rate 500 g/ha, Preemergence; 0 to 100 scale) | Plant response rating, Wheat (winter) ([10]; Rate 500 g/ha, 0 to 100 scale, 0 no effect, 100 complete control) | Plant response rating, Wheat (winter) [13, 22]
45: Plant response rating, I. Ryegrass ([7]; Rate 250 g/ha, 0 to 100 scale)
75: Plant response rating, Bermudagrass [1, 17]
